# Experimental data published in patent US7071168B2, “Anti-cancer compounds and methods related thereto” (The Regents of the University of Colorado, priority 1998, dated 2006).
# What was measured:
# [1] = test system: SCLC strain SHP-77; assay: Colorimetric tetrazolium (MTT) assay for cell survival, SCLC strain SHP-77; type: cell-based, human; conditions: for ED50 for cytotoxic activity, SCLC SHP-77: Table 5, included for comparison
# Summary of the method: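 MTT assay: cells seeded overnight, treated in triplicate across a concentration range for 4 days at 37 °C, 5% CO2. On day 5, MTT was added for 4 h; formazan was dissolved in acidified isopropanol and absorbance read.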
# [2] = test system: SCLC strain SHP-77; assay: Inhibition of tumor growth in vivo in nude mice, SCLC strain SHP-77; conditions: for inhibition of growth in vivo of SCLC strain SHP-77: figure legends, nude mice, i.p. daily; for inhibition of growth of the SCLC line SHP-77: dose of 5 mg/kg/day
# Description: Representative peptide and non-peptide compounds having high in vitro cytotoxic activity were tested against implanted tumors in vivo. Athymic nude mice were implanted subcutaneously with either single cell suspensions (2 million SCLC cells or 1 million NSCLC cells) or with small fragments (3×3 mm) of tumors minced from previously grown nude mouse heterotransplants. On the seventh day after tumor implantation groups of 5 mice bearing implants were injected intraperitoneally daily with the compounds being tested at 1, 5, or 10 mg/kg/day; control animals were injected with an equal volume of isotonic saline. Tumor size was measured with a caliper three times per week. Tumor volume was calculated by the formula: Volume (cc)=π×(length)×(width)^2/6
# [3] = test system: bradykinin response of isolated guinea pig ileum; assay: Anti-bradykinin activity on isolated guinea pig ileum; conditions: for GPI: pA2 for bradykinin antagonist activity on isolated guinea pig ileum: higher numbers indicate higher potency
# Summary of the method: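 Terminal ileum segments (25 mm) from overnight-fasted male Hartley guinea pigs, in Krebs' solution gassed with 95% O2/5% CO2 under 1 g tension, equilibrated 1 h. Bradykinin concentration-effect curves constructed without and with test compounds.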
# [4] = test system: PC-3; assay: Cytotoxicity in vitro (MTT), prostate cancer cell line PC-3; type: cell-based, human
# Description: (§1) In general, Anti-bradykinin activity was determined by the classical guinea pig ileum assay and on Chinese hamster ovary (CHO) cells expressing cloned human bradykinin B2 receptors. Anti-tumor activity was determined on cultured human cancer cell lines using the standard tetrazolium (MTT) assay.
# (§2) Cell growth and survival were measured by a rapid colorimetric assay based on the tetrazolium salt MTT (3-(4,5-dimethylthiazol-2-yl)-2,5-diphenyl tetrazolium bromide) (Mosmann, J Immunol. Methods 65: 55–63, 1983, with minor modifications). Briefly, 1,000 normal lung fibroblasts or normal epithelial BEAS-2B cells, 1,000 or 5,000 viable non-SCLC cells or 10,000 viable SCLC cells were plated in 100 μL of growth medium in 96-well flat-bottomed microtiter plates. Cells were incubated overnight to allow recovery. Compounds to be tested were added to the cells in triplicate in a range of concentrations and the cells were incubated at 37° C., 5% CO2, with 100% humidity. Control cells were treated in the same way without antagonists. […] Plates were incubated for 4 days, allowing sufficient time for cell replication and compound-induced cell death to occur. On day 5, 25 μL of a 2 mg/mL solution of MTT (Sigma) dissolved in RMPI-1640was added to each well. The plate was incubated for 4 h at 37° C. The supernate was removed and the blue formazan complex was dissolved by adding 100 μL of 0.02 N HCl in 75% isopropanol to all wells. Absorbance was immediately determined using a scanning multiwell plate reader. B9870 caused 50% cell death at a concentration of 0.15 μM under these conditions.
# [5] = test system: TSU; assay: Cytotoxicity in vitro (MTT), prostate cancer cell line TSU; type: cell-based, human
# Description: as §1, §2
# [6] = test system: LNCa; assay: Cytotoxicity in vitro (MTT), prostate cancer cell line LNCa; type: cell-based, human
# Description: as §1, §2
# [7] = test system: DU14; assay: Cytotoxicity in vitro (MTT), prostate cancer cell line DU14; type: cell-based, human
# Description: as §1, §2
# [8] = test system: PPC1; assay: Cytotoxicity in vitro (MTT), prostate cancer cell line PPC1; type: cell-based, human
# Description: as §1, §2
# [9] = molecular target: T1, cloned human bradykinin B2 receptors (Homo sapiens, UniProt P30411); assay: Anti-bradykinin activity on cloned human B2 receptors (CHO cells, Cytosensor microphysiometer); type: cell-based; conditions: for HUMAN: pA2 for bradykinin antagonist potency on cloned human B2 receptors: higher numbers indicate higher potency
# T1 sequence (P30411 1-391): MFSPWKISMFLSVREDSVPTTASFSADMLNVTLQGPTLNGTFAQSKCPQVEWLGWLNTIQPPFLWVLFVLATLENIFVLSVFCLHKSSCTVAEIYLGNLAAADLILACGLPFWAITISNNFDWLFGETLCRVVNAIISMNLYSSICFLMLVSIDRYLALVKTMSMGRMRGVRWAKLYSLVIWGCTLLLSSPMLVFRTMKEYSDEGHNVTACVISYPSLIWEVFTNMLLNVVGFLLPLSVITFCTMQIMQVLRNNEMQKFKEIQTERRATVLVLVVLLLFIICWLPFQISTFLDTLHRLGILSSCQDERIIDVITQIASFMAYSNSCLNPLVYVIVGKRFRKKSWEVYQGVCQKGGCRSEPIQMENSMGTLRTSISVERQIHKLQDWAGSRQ
# Description: as §1
# Chinese hamster ovary cells containing cloned and expressed human bradykinin B2 receptors were grown in cell cups of the Cytosensor microphysiometer in Ham's F-12 medium supplemented with sodium pyruvate and 10% FBS (Gibco 11765-054). For assay the cells were transferred to Ham's F-12 without bicarbonate or serum (Gibco 21700-075) and placed in the Cytosensor. Concentration-response curves were constructed to bradykinin in the presence or absence of new compounds.
# [10] = isolated guinea pig ileum, pD2 of bradykinin is 7.4
# [11] = cloned human B2 receptors, pD2 for bradykinin is 11
Compound,MTT: ED50 for killing of SCLC strain SHP-77 in vitro ([1]; SCLC strain SHP-77 in vitro),"GPI: pA2 for bradykinin antagonist activity on isolated guinea pig ileum [3, 10]","MTT: ED50 for killing of SCLC strain SHP-77 in vitro ([1]; Table 1, SHP-77, MTT, 4 days)",GPI: pA2 for bradykinin antagonist activity on isolated guinea pig ileum ([3]; Table 1),"HUMAN: pA2 for bradykinin antagonist potency on cloned human B2 receptors [9, 11]",also measured
DDD-(DArg-Igl-Arg-Matp)2 [M638],0.6 µM,Inact,,,,inhibition of growth in vivo of SCLC strain SHP-77 [2]: inhibition of growth
"SUIM-(DArg-Arg-Pro-Hyp-Gly-Igl-Ser-DIgl-Oic-Arg) [B9870-2, reference compound]",,,0.15 µM,8.4,,"ED50 for cytotoxic activity, PC-3 [4]: 3.2 µM; ED50 for cytotoxic activity, TSU [5]: 6.5 µM; ED50 for cytotoxic activity, LNCa [6]: 3.7 µM; EC50 ([1]; MTT assay, text of Example XIX, read-out: concentration causing 50% cell death): 0.15 µM; ED50 for cytotoxic activity, SCLC SHP-77 [1]: 0.15 µM; ED50 for cytotoxic activity, DU14 [7]: 0.08 µM; inhibition of growth of the SCLC line SHP-77 [2]: marked inhibition of growth; ED50 for cytotoxic activity, PPC1 [8]: 4.3 µM"
"DArg-Arg-Pro-Hyp-Gly-Igl-Ser-DIgl-Oic-Arg [B9430, reference compound]",,,120 µM,8.2,,inhibition of growth in vivo of SCLC strain SHP-77 [2]: inhibition of growth; pA2 (antagonist) on cloned human B2 receptors ([9]; text of Example XVIII): 10.5; pA2 (antagonist) on guinea pig ileum ([3]; text of Example XVII): 7.9
"CC1(C)CC(NC(=O)[C@H](Cc2ccc(OCc3c(Cl)cccc3Cl)cc2)NC(=O)/C=C/c2c(F)c(F)c(F)c(F)c2F)CC(C)(C)N1 [M570, F5c-OC2Y-Atmp]",1.8 µM,5.6,,,,"ED50 for cytotoxic activity, PC-3 [4]: 1.6 µM; ED50 for cytotoxic activity, TSU [5]: 2.8 µM; ED50 for cytotoxic activity, LNCa [6]: 3.0 µM; ED50 for cytotoxic activity, SCLC SHP-77 [1]: 1.8 µM; ED50 for cytotoxic activity, DU14 [7]: 1.2 µM; inhibition of growth in vivo of SCLC strain SHP-77 [2]: inhibition of growth; ED50 for cytotoxic activity, PPC1 [8]: 3.0 µM"
Atmp-Igl-Pac-α-Sbl-Lys-B9430 [M590],,,4.5 µM,7.5,,"ED50 for cytotoxic activity, PC-3 [4]: 6.3 µM; ED50 for cytotoxic activity, TSU [5]: 7.0 µM; ED50 for cytotoxic activity, LNCa [6]: 7.0 µM; ED50 for cytotoxic activity, SCLC SHP-77 [1]: 4.5 µM; ED50 for cytotoxic activity, DU14 [7]: 0.01 µM; HUMAN: pA2 for bradykinin antagonist potency on cloned human B2 receptors ([9]; Table 1): Inact; ED50 for cytotoxic activity, PPC1 [8]: 12 µM"
DDD-(DArg-F5F-Arg)2 [M822],,,25 µM,Mixed,,inhibition of growth in vivo of SCLC strain SHP-77 [2]: inhibition of growth
DDD-(DArg-2Nal-Arg-NH2)2 [M510],,,8 µM,Inact,,HUMAN: pA2 for bradykinin antagonist potency on cloned human B2 receptors ([9]; Table 1): 11
O=C(C=Cc1ccc(NC(=O)CCCCCCCCCCC(=O)Nc2ccc(C=CC(=O)NC(Cc3ccc4ccccc4c3)C(=O)NC3CCNCC3)cc2)cc1)NC(Cc1ccc2ccccc2c1)C(=O)NC1CCNCC1 (stereo not shown) [M606],30 µM,5.0,,,10,
DDD-(Lys-Pac-Gly-mABz-2Nal-NH2)2 [M494],,,33 µM,5.1,,HUMAN: pA2 for bradykinin antagonist potency on cloned human B2 receptors ([9]; Table 1): Inact
CC1(C)CC(NC(=O)[C@H](Cc2csc3ccccc23)NC(=O)CCCCCCCCCCC(=O)N[C@@H](Cc2csc3ccccc23)C(=O)NC2CC(C)(C)NC(C)(C)C2)CC(C)(C)N1 [M430],18 µM,5.3,,,11.3,
CC1(C)CC(NC(=O)C(Cc2cccnc2)NC(=O)C=Cc2c(F)c(F)c(F)c(F)c2F)CC(C)(C)N1 (stereo not shown) [M438],26 µM,4.8,,,10,
F5c-OBS-Arg [M520],,,Inact,6.1,,HUMAN: pA2 for bradykinin antagonist potency on cloned human B2 receptors ([9]; Table 1): 7
CC1(C)CC(NC(=O)[C@H](Cc2ccc3ccccc3c2)NC(=NC2CCCCC2)NC2CCCCC2)CC(C)(C)N1 [M222],15 µM,6.8,,,Inact,
CN1CCN(NC(=O)C(Cc2ccc3ccccc3c2)NC(=O)C=Cc2ccc(N(C)C)cc2)CC1 (stereo not shown) [M472],25 µM,5.3,,,Inact,
COC(=O)CCCCCCCCC(=O)Nc1ccc(C=CC(=O)NC(C(=O)NC2CC(C)(C)NC(C)(C)C2)C2Cc3ccccc3C2)cc1 (stereo not shown) [M586-A],15 µM,5.3,,,12,
F5c-OC2Y-Arg [M512],,,70 µM,5.7,,HUMAN: pA2 for bradykinin antagonist potency on cloned human B2 receptors ([9]; Table 1): 11
CC1(C)CC(NC(=O)C(NC(=O)C=Cc2ccc(NC(=O)CCCCCCCCCCC(=O)Nc3ccc(C=CC(=O)NC(C(=O)NC4CC(C)(C)NC(C)(C)C4)C4Cc5ccccc5C4)cc3)cc2)C2Cc3ccccc3C2)CC(C)(C)N1 (stereo not shown) [M294],1.8 µM,Inact,,,10.3,
DDD-(Lys-DArg-Arg-Pro-Hyp-Gly-Igl-Ser-DIgl-Oic-Arg)2 [B10054],,,0.3 µM,7.1,,inhibition of growth of the SCLC line SHP-77 [2]: marked inhibition of growth; inhibition of growth in vivo of SCLC strain SHP-77 [2]: inhibition of growth
